# Measured values: patent US6326372A, “Lactam and cyclic urea derivatives useful as alpha 1a adrenoceptor antagonists” (Merck & Co., Inc., priority 2000, dated 2001)
# Where a name gives a salt, the structure may show the parent alone.
# System: alpha 1a receptors versus alpha 1b and alpha 1d receptors
# Assay: Selective Binding Assays: binding to alpha 1a versus alpha 1b and alpha 1d receptors ([125I]-HEAT competition binding)
# Design: species or system human
# Settings: alpha 1a versus both alpha 1b and alpha 1d; at least about
# Method: Membranes prepared from the stably transfected human alpha 1a cell line (ATCC CRL 11140) were used to identify compounds that bind to the human alpha 1a adrenergic receptor. These competition binding reactions (total volume=200 μl) contained 50 mM Tris-HCl pH. 7.4, 5 mM EDTA, 150 mM NaCl, 100 pM [^125 I]-HEAT, membranes prepared from the alpha 1a cell line and increasing amounts of unlabeled ligand. Reactions were incubated at room temperature for one hour with shaking. Reactions were filtered onto Whatman GF/C glass fiber filters with a Inotec 96 well cell harvester. Filters were washed three times with ice cold buffer and bound radioactivity was determined (Ki).
# Membranes prepared from stably transfected human alpha 1d and alpha 1b cell lines (ATCC CRL 11138 and CRL 11139, respectively) were used to identify compounds that selectively bind to the human alpha 1a adrenergic receptor. These competition binding reactions (total volume=200 μl) contained 50 mM Tris-HCl pH. 7.4, 5 mM EDTA, 150 mM NaCl, 100 pM [^125 I]-HEAT, membranes prepared from cell lines transfected with the respective alpha 1 subtype expression plasmid and increasing amounts of unlabeled ligand. Reactions were incubated at room temperature for one hour with shaking. Reactions were filtered onto Whatman GF/C glass fiber filters with a Inotec 96 well cell harvester. Filters were washed three times with ice cold buffer and bound radioactivity was determined (Ki).
row,fold more selective in binding to alpha 1a receptors versus binding to the alpha 1b and alpha 1d receptors,SMILES
1,at least 10 fold,"O=C(NCCCN1CCC(c2ccc(F)cc2)CC1)N1C(=O)NC[C@@H](C2CC2)[C@@H]1c1ccc(F)c(F)c1 (relative stereo) [Example 21 (Isomer C), (4R,5S)-, (4S,5S)-, (4R,5R)-, and (4S,5R)-5-Cyclopropyl-4-(3,4-difluorophenyl)-3-[(4'-(4-fluorophenyl)piperidin-1'-yl)propyl]aminocarbonyltetrahydropyrimidin-2-one Hydrochlorides]"
2,at least 10 fold,"O=C(NCCCN1CCC(c2ccc(F)cc2)CC1)N1C(=O)NC[C@H](C2CC2)[C@@H]1c1ccc(F)c(F)c1 (relative stereo) [Example 21 (Isomer D), (4R,5S)-, (4S,5S)-, (4R,5R)-, and (4S,5R)-5-Cyclopropyl-4-(3,4-difluorophenyl)-3-[(4'-(4-fluorophenyl)piperidin-1'-yl)propyl]aminocarbonyltetrahydropyrimidin-2-one Hydrochlorides]"
3,at least 10 fold,"CC1CC(=O)N(C(=O)NCCCN2CCC(c3ccc(F)cc3)CC2)C(c2ccc(F)c(F)c2)C1 (single isomer, unassigned) [Example 3 (Isomer C), Hydrochloride]"
4,at least 10 fold,"O=C(NCCCN1CCC(c2ccc(F)cc2)CC1)N1C(=O)NCCC1c1ccc(F)c(F)c1 (single isomer, unassigned) [Example 14 (Step 9, Enantiomer A), Hydrochloride]"
5,at least 10 fold,"COc1cc(F)ccc1[C@H]1CC[C@H](N2CC[C@@H](NC(=O)N3C(=O)N([C@H](C)c4ccccc4)CCC3c3ccc(F)c(F)c3)C2)CC1 (stereo partly drawn) [Example 15 (Table 1, entry 5), 3-[[3(R)-1-[trans-4-(2-methoxy-4-fluorophenyl)cyclohexyl]pyrrolidin-3-yl]-aminocarbonyl]-1-((R)-α-methylbenzyl)-4-(3,4-difluorophenyl)pyrimidin-2-one]"
6,at least 10 fold,"N#Cc1cc(F)ccc1C1CCN(CCCNC(=O)N2C(=O)CCCC2c2ccc(F)c(F)c2)CC1 (single isomer, unassigned) [Example 9, hydrochloride]"
7,at least 10 fold,"CC1CNC(=O)N(C(=O)NCCCN2CCC(c3ccc(F)cc3)CC2)C1c1ccc(F)c(F)c1 (single isomer, unassigned) [Example 22 (Isomer C), Hydrochloride]"
8,at least 10 fold,"CC1(C)CC(=O)N(C(=O)NCCCN2CCC(c3ccc(F)cc3)CC2)C(c2ccc(F)c(F)c2)C1.Cl (single isomer, unassigned) [Example 2 (Enantiomer A)]"
9,at least 10 fold,"C[C@H](c1ccccc1)N1CCC(c2ccc(F)c(F)c2)N(C(=O)NCCCN2CCC(c3ccc(F)cc3)CC2)C1=O (single isomer, unassigned) [Example 14 (Step 8, Diastereomer A), Hydrochloride]"
10,at least 10 fold,"O=C1CCCC(c2ccc(F)c(F)c2)N1C(=O)NCCCN1CCC(c2ccccn2)CC1 (single isomer, unassigned) [Example 8, Dihydrochloride]"
11,at least 10 fold,"CC1CC(=O)N(C(=O)NCCCN2CCC(c3ccc(F)cc3)CC2)C(c2ccc(F)c(F)c2)C1 (single isomer, unassigned) [Example 3 (Isomer A), Hydrochloride]"
12,at least 10 fold,"CC1(C)CN(Cc2ccccc2)C(=O)N(C(=O)NCCCN2CCC(c3ccc(F)cc3)CC2)C1c1ccc(F)c(F)c1 [Example 19, (4R)- and (4S)-4-(3,4-Difluorophenyl)-5,5-dimethyl-1-benzyl-3-[(4'-(4-fluorophenyl)piperidin-1'-yl)propyl]aminocarbonyltetrahydropyrimidin-2-one Hydrochloride]"
13,at least 10 fold,"C[C@H](c1ccccc1)N1CC(C)(C)C(c2ccc(F)c(F)c2)N(C(=O)NCCCN2CCC(c3ccc(F)cc3)CC2)C1=O (single isomer, unassigned) [Example 18 (Step 2, Diastereomer A)]"
14,at least 10 fold,"CC1(C)CNC(=O)N(C(=O)NCCCN2CCC(c3ccc(F)cc3)CC2)C1c1ccc(F)c(F)c1 (single isomer, unassigned) [Example 18 (Step 3, Enantiomer B), Hydrochloride]"
15,at least 10 fold,"C[C@H](c1ccccc1)N1CCC(c2ccc(F)c(F)c2)N(C(=O)NCCCN2CCC(c3ccccn3)CC2)C1=O (stereo partly drawn) [Example 15 (Table 1, entry 1), 4-(3,4-difluorophenyl)-1-((R)-α-methylbenzyl)-3-[(4'-(2-pyridyl)piperidin-1'-yl)propyl]aminocarbonyltetrahydropyrimidin-2-one]"
16,at least 10 fold,"CC1CNC(=O)N(C(=O)NCCCN2CCC(c3ccc(F)cc3)CC2)C1c1ccc(F)c(F)c1 (single isomer, unassigned) [Example 22 (Isomer B), Hydrochloride]"
17,at least 10 fold,"CN1CCC(c2ccc(F)c(F)c2)N(C(=O)NCCCN2CCC(c3ccc(F)cc3)CC2)C1=O (centres unmarked) [Example 17, 4-(3,4-Difluorophenyl)-1-methyl-3-[(4'-(4-fluorophenyl)piperidin-1'-yl)propyl]aaminocarbonyltetrahydropyrimidin-2-one Hydrochloride]"
18,at least 10 fold,"CC1(C)CNC(=O)N(C(=O)NCCCN2CCC(c3ccc(F)cc3)CC2)C1c1ccc(F)c(F)c1 (single isomer, unassigned) [Example 18 (Step 3, Enantiomer A), Hydrochloride]"
19,at least 10 fold,"C[C@H](c1ccccc1)N1CCC(c2ccc(F)c(F)c2)N(C(=O)NCCCN2CCC(c3ccccc3C#N)CC2)C1=O (stereo partly drawn) [Example 15 (Table 1, entry 2), 4-(3,4-difluorophenyl)-1-((R)-α-methylbenzyl)-3-[(4'-(2-cyanophenyl)piperidin-1'-yl)propyl]aminocarbonyltetrahydro-pyrimidin-2-one]"
20,at least 10 fold,"CC1(C)CCC(c2ccc(F)c(F)c2)N(C(=O)NCCCN2CCC(c3ccc(F)cc3)CC2)C1=O.Cl (single isomer, unassigned) [Example 1]"
21,at least 10 fold,"O=C(NCCCN1CCC(c2ccc(F)cc2)CC1)N1C(=O)NC[C@@H](C2CC2)[C@@H]1c1ccc(F)c(F)c1 (relative stereo) [Example 21 (Isomer A), (4R,5S)-, (4S,5S)-, (4R,5R)-, and (4S,5R)-5-Cyclopropyl-4-(3,4-difluorophenyl)-3-[(4'-(4-fluorophenyl)piperidin-1'-yl)propyl]aminocarbonyltetrahydropyrimidin-2-one Hydrochlorides]"
22,at least 10 fold,"O=C(NCCCN1CCC(c2ccc(F)cc2)CC1)N1C(=O)NCC2(CCCCC2)C1c1ccc(F)c(F)c1 (single isomer, unassigned) [Example 20 (Isomer B), (4'R)- and (4'S)-Spirocyclohexane-[1,5']-{4-(3,4-difluorophenyl)-3-[(4'-(4-fluorophenyl)piperidin-1'-yl)propyl]aminocarbonyl}tetrahydropyrimidin-2-one Hydrochloride]"
23,at least 10 fold,"O=C1CCCC(c2ccc(F)c(F)c2)N1C(=O)N[C@@H]1CCN([C@H]2CC[C@H](c3ccccn3)CC2)C1 (single isomer, unassigned) [Example 10 (Enantiomer A), Dihydrochloride]"

row,SMILES,fold more selective in binding to alpha 1a receptors versus binding to the alpha 1b and alpha 1d receptors
1,"O=C1CCCC(c2ccc(F)c(F)c2)N1C(=O)NCCCN1CCC2(CCc3ccccc32)CC1 (single isomer, unassigned) [Example 7 (Enantiomer A), Hydrochloride]",at least 10 fold
2,"N#Cc1ccccc1C1(C#N)CCN(CCCNC(=O)N2C(=O)CCCC2c2ccc(F)c(F)c2)CC1 (racemic) [Example 5, (6RS)-, 6(R)- and 6(S)-1-[3-[4-(2-Cyanophenyl)-4-cyanopiperidin-1-yl]-propylaminocarbonyl]-6-(3,4-difluorophenyl)piperidin-2-one Hydrochloride]",at least 10 fold
3,"N#CC1(c2ccc(F)cc2)CCN(CCCNC(=O)N2C(=O)CCCC2c2ccc(F)c(F)c2)CC1 (single isomer, unassigned) [Example 6 (Enantiomer A), Hydrochloride]",at least 10 fold
